Earlier results on 1 molecule are cited in patent US20080260785A1, “PAROXETINE COMPOSITIONS” (priority 2005, published 2008).

For the series the following is noted: hydrochloride hemihydrate.

Each structure is given as a SMILES string.

In the case of `Cl.Fc1ccc([C@@H]2CCNC[C@H]2COc2ccc3c(c2)OCO3)cc1` [Paroxetine, (−)-trans-4R-(4′-fluorophenyl)-3S-[(3′,4′-methylenedioxyphenoxy)methyl]piperidine], the solubility in water was 5400 µg/mL.
